In US9169254B2, “Spiroimidazolone derivative” (Chugai Seiyaku Kabushiki Kaisha, priority 2009, dated 2015):

These compounds were tested against T1, human PTH1 receptor (Homo sapiens, UniProt Q03431) (assay: In vitro cAMP signal activity in HKRK-B7 cells (LLC-PK1 cells overexpressing the human PTH1 receptor)). Settings: HKRK-B7 cells; compound at 1×10^−3 M; cAMP produced as percentage of that produced by hPTH(1-34) at 100 nM.
T1 sequence (Q03431 27-593): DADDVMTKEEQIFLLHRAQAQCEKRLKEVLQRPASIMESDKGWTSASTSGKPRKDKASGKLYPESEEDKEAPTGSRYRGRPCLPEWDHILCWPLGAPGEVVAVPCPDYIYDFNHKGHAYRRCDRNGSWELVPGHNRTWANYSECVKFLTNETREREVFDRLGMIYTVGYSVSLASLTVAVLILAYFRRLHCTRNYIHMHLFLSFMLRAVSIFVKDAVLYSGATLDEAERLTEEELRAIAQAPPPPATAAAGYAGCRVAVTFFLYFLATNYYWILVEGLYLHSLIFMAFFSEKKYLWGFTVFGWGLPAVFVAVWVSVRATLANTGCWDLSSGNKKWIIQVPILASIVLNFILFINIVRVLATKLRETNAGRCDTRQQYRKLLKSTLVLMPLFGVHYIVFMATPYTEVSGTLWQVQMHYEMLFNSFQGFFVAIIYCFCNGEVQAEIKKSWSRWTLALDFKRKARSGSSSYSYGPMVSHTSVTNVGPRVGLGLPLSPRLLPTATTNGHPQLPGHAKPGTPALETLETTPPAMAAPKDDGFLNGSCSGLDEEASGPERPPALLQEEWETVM
Type: cell-based

| SMILES | cAMP production activity (%) |
| --- | --- |
| CCOc1cc(NC(C)=O)ccc1/C=C/S(=O)(=O)N1CCC2(CC1)N=C(C1CCC(C)CC1)NC2=O (stereo not shown) [Compound 509, N-(3-ethoxy-4-{(E)-2-[2-(4-methyl-cyclohexyl)-4-oxo-1,3,8-triaza-spiro[4.5]dec-1-ene-8-sulfonyl]-vinyl}-phenyl)-acetamide] | 70% |
| O=C1NC(c2cccc(OC(F)(F)F)c2)=NC12CCN(S(=O)(=O)c1cccc(Cl)c1)CC2 [Compound 13, 8-(3-chloro-benzenesulfonyl)-2-(3-trifluoromethoxy-phenyl)-1,3,8-triaza-spiro[4.5]dec-1-en-4-one] | 31% |
| CCCCCCCCCC1=NC2(CCN(S(=O)(=O)CCc3ccc(N4C(=O)CC[C@H]4CO)cc3C)CC2)C(=O)N1 [Compound 670, 8-{2-[4-((S)-2-Hydroxymethyl-5-oxo-pyrrolidin-1-yl)-2-methyl-phenyl]-ethanesulfonyl}-2-nonyl-1,3,8-triaza-spiro[4.5]dec-1-en-4-one] | 123% |
| CCCC1=NC2(CCN(S(=O)(=O)c3cccc(Cl)c3)CC2)C(=O)N1 [Compound 3, 8-(3-chloro-benzenesulfonyl)-2-propyl-1,3,8-triaza-spiro[4.5]dec-1-en-4-one] | 20% |
| O=C(NCCO)Nc1ccc(CCS(=O)(=O)N2CCC3(CC2)N=C(C2CCCCC2)NC3=O)c(C(F)(F)F)c1 [Compound 278, 1-{4-[2-(2-cyclohexyl-4-oxo-1,3,8-triaza-spiro[4.5]dec-1-ene-8-sulfonyl)-ethyl]-3-trifluoromethyl-phenyl}-3-(2-hydroxy-ethyl)-urea] | 59% |
| Cc1cc(C(=O)N(C)C)ccc1CCS(=O)(=O)N1CCC2(CC1)N=C(CCC1CCCCC1)NC2=O [Compound 108, 4-{2-[2-(2-cyclohexyl-ethyl)-4-oxo-1,3,8-triaza-spiro[4.5]dec-1-ene-8-sulfonyl]-ethyl}-3,N,N-trimethyl-benzamide] | 62% |
| Cc1cc2ccc1CCS(=O)(=O)N1CCC3(CC1)N=C(NC3=O)c1cc(cc(C(F)(F)F)c1)OCCCCCN(C)C2=O [Compound 1409] | 13% |
| Cc1cc(C(=O)N(C)C)ccc1CCS(=O)(=O)N1CCC2(CC1)N=C(c1cccc(-c3c(C)noc3C)c1)NC2=O [Compound 171, 4-(2-{2-[3-(3,5-Dimethyl-isoxazol-4-yl)-phenyl]-4-oxo-1,3,8-triaza-spiro[4.5]dec-1-ene-8-sulfonyl}-ethyl)-3,N,N-trimethyl-benzamide] | 36% |
| Cc1cc(NC[C@H](O)CO)ccc1CCS(=O)(=O)N1CCC2(CC1)N=C(c1ccc(Cl)cc1)NC2=O [Compound 158, 2-(4-chloro-phenyl)-8-{2-[4-((S)-2,3-dihydroxy-propylamino)-2-methyl-phenyl]-ethanesulfonyl}-1,3,8-triaza-spiro[4.5]dec-1-en-4-one] | 62% |
| CC(=O)N(CCOCCO)c1cc(C)c(CCS(=O)(=O)N2CCC3(CC2)N=C(C2CCC(CCC(F)(F)F)CC2)NC3=O)c(C)c1 (stereo not shown) [Compound 820, N-[3,5-dimethyl-4-(2-{4-oxo-2-[4-(3,3,3-trifluoro-propyl)-cyclohexyl]-1,3,8-triaza-spiro[4.5]dec-1-ene-8-sulfonyl}-ethyl)-phenyl]-N-[2-(2-hydroxy-ethoxy)-ethyl]-acetamide] | 98% |
| Cc1cc(S(=O)(=O)Nc2ccncc2)ccc1CCS(=O)(=O)N1CCC2(CC1)N=C(c1cccc(OC(F)(F)F)c1)NC2=O [Compound 846, 3-methyl-4-{2-[4-oxo-2-(3-trifluoromethoxy-phenyl)-1,3,8-triaza-spiro[4.5]dec-1-ene-8-sulfonyl]-ethyl}-N-pyridin-4-yl-benzenesulfonamide] | 47% |
| O=C(c1cccc(C2=NC3(CCN(S(=O)(=O)c4cccc(Cl)c4)CC3)C(=O)N2)c1)N1CCOCC1 [Compound 348, 8-(3-Chloro-benzenesulfonyl)-2-[3-(morpholine-4-carbonyl)-phenyl]-1,3,8-triaza-spiro[4.5]dec-1-en-4-one] | 5.6% |
| Cc1ccc(C(=O)N(C)C)cc1CCS(=O)(=O)N1CCC2(CC1)N=C(c1cccc(OC(F)(F)F)c1)NC2=O [Compound 412, 4,N,N-Trimethyl-3-{2-[4-oxo-2-(3-trifluoromethoxy-phenyl)-1,3,8-triaza-spiro[4.5]dec-1-ene-8-sulfonyl]-ethyl}-benzamide] | 54% |
| COCc1cc(NC(C)=O)ccc1/C=C/S(=O)(=O)N1CCC2(CC1)N=C(C1CCC(C)CC1)NC2=O (stereo not shown) [Compound 512, N-(3-methoxymethyl-4-{(E)-2-[2-(4-methyl-cyclohexyl)-4-oxo-1,3,8-triaza-spiro[4.5]dec-1-ene-8-sulfonyl]-vinyl}-phenyl)-acetamide] | 49% |
| CCCCCCCCCC1=NC2(CCN(S(=O)(=O)CCc3c(C)cc(C(=O)N4CC[C@@H](O)C4)cc3C)CC2)C(=O)N1 [Compound 981, 8-{2-[4-((R)-3-hydroxy-pyrrolidine-1-carbonyl)-2,6-dimethyl-phenyl]-ethanesulfonyl}-2-nonyl-1,3,8-triaza-spiro[4.5]dec-1-en-4-one] | 106% |
| CN(C)C(=O)CNc1ccc(CCS(=O)(=O)N2CCC3(CC2)N=C(C2CCCCC2)NC3=O)c(C(F)(F)F)c1 [Compound 270, 2-{4-[2-(2-cyclohexyl-4-oxo-1,3,8-triaza-spiro[4.5]dec-1-ene-8-sulfonyl)-ethyl]-3-trifluoromethyl-phenylamino}-N,N-dimethyl-acetamide] | 55% |
| Cc1cc2ccc1CCS(=O)(=O)N1CCC3(CC1)N=C(NC3=O)c1cc(cc(C(F)(F)F)c1)OCCCCCOCCN(CCO)C2=O [Compound 1429] | 8.9% |

Further lines, results first:

| cAMP production activity (%) | SMILES |
| --- | --- |
| 76% | COCCN(C(C)=O)c1cc(C)c(/C=C/S(=O)(=O)N2CCC3(CC2)N=C(C2CCC(CCC(F)(F)F)CC2)NC3=O)c(C)c1 (stereo not shown) [Compound 543, N-[3,5-dimethyl-4-((E)-2-{4-oxo-2-[4-(3,3,3-trifluoro-propyl)-cyclohexyl]-1,3,8-triaza-spiro[4.5]dec-1-ene-8-sulfonyl}-vinyl)-phenyl]-N-(2-methoxy-ethyl)-acetamide] |
| 93% | Cc1cc(C(=O)N2CCC(C)(O)CC2)cc(C)c1/C=C/[S@TB4](=O)(=O)N1CCC2(CC1)N=C(c1cccc(OCCCC(F)(F)C(F)(F)F)c1)NC2=O [Compound 1096, 8-{(E)-2-[4-(4-hydroxy-4-methyl-piperidine-1-carbonyl)-2,6-dimethyl-phenyl]-ethenesulfonyl}-2-[3-(4,4,5,5,5-pentafluoro-pentyloxy)-phenyl]-1,3,8-triaza-spiro[4.5]dec-1-en-4-one] |
| 61% | Cc1cc(C(=O)N(C)C)ccc1CCS(=O)(=O)N1CCC2(CC1)N=C(c1ccc(C(F)(F)F)cc1C(F)(F)F)NC2=O [Compound 100, 4-{2-[2-(2,4-bis-trifluoromethyl-phenyl)-4-oxo-1,3,8-triaza-spiro[4.5]dec-1-ene-8-sulfonyl]-ethyl}-3,N,N-trimethyl-benzamide] |
| 45% | Cc1cc(C(=O)N2C[C@@H](C)N[C@@H](C)C2)cc(C)c1/C=C/S(=O)(=O)N1CCC2(CC1)N=C(c1ccc(F)c(C(F)(F)F)c1)NC2=O [Compound 969, 8-{(E)-2-[4-((3R,5S)-3,5-dimethyl-piperazine-1-carbonyl)-2,6-dimethyl-phenyl]-ethenesulfonyl}-2-(4-fluoro-3-trifluoromethyl-phenyl)-1,3,8-triaza-spiro[4.5]dec-1-en-4-one] |
| 55% | Cc1cc(NC(=O)[C@@H](N)CO)ccc1/C=C/S(=O)(=O)N1CCC2(CC1)N=C(c1cccc(C(F)(F)F)c1)NC2=O [Compound 688, (S)-2-Amino-3-hydroxy-N-(3-methyl-4-{(E)-2-[4-oxo-2-(3-trifluoromethyl-phenyl)-1,3,8-triaza-spiro[4.5]dec-1-ene-8-sulfonyl]-vinyl}-phenyl)-propionamide] |
| 75% | [2H]C([2H])([2H])C([2H])([2H])Oc1ccc(C2=NC3(CCN(S(=O)(=O)/C=C/c4c(C)cc(C(=O)N5CCC(C)(O)CC5)cc4C)CC3)C(=O)N2)cc1C(F)(F)F [Compound 1221, 2-(4-[1,1,2,2,2-^2H5]ethoxy-3-trifluoromethyl-phenyl)-8-{(E)-2-[4-(4-hydroxy-4-methyl-piperidine-1-carbonyl)-2,6-dimethyl-phenyl]-ethenesulfonyl}-1,3,8-triaza-spiro[4.5]dec-1-en-4-one] |
| 81% | Cc1cc(CN(C)C(N)=O)cc(C)c1/C=C/S(=O)(=O)N1CCC2(CC1)N=C(C1CCC(CCC(F)(F)F)CC1)NC2=O (stereo not shown) [Compound 1300, 1-[3,5-Dimethyl-4-((E)-2-{4-oxo-2-[4-(3,3,3-trifluoro-propyl)-cyclohexyl]-1,3,8-triaza-spiro[4.5]dec-1-ene-8-sulfonyl}-vinyl)-benzyl]-1-methyl-urea] |
| 26% | Cc1cc(C(=O)N(C)CCCN(C)C)cc(C)c1/C=C/S(=O)(=O)N1CCC2(CC1)N=C(c1cccc(C(F)(F)F)c1)NC2=O [Compound 391, N-(3-dimethylamino-propyl)-3,5,N-trimethyl-4-{(E)-2-[4-oxo-2-(3-trifluoromethyl-phenyl)-1,3,8-triaza-spiro[4.5]dec-1-ene-8-sulfonyl]-vinyl}-benzamide] |
